Results on 26 compounds are retold here after patent US7432392B2, “Ester derivatives and medical use thereof” (Japan Tobacco Inc., priority 2003, dated 2008).

Structures are written as SMILES.

The target in the test is T1, Microsomal triglyceride transfer protein (MTP) from bovine liver (Bos taurus, UniProt P55156).
T1 construct: the purified MTP was used for the test; from tissue; host or cells: bovine liver
T1 sequence (P55156 12-887): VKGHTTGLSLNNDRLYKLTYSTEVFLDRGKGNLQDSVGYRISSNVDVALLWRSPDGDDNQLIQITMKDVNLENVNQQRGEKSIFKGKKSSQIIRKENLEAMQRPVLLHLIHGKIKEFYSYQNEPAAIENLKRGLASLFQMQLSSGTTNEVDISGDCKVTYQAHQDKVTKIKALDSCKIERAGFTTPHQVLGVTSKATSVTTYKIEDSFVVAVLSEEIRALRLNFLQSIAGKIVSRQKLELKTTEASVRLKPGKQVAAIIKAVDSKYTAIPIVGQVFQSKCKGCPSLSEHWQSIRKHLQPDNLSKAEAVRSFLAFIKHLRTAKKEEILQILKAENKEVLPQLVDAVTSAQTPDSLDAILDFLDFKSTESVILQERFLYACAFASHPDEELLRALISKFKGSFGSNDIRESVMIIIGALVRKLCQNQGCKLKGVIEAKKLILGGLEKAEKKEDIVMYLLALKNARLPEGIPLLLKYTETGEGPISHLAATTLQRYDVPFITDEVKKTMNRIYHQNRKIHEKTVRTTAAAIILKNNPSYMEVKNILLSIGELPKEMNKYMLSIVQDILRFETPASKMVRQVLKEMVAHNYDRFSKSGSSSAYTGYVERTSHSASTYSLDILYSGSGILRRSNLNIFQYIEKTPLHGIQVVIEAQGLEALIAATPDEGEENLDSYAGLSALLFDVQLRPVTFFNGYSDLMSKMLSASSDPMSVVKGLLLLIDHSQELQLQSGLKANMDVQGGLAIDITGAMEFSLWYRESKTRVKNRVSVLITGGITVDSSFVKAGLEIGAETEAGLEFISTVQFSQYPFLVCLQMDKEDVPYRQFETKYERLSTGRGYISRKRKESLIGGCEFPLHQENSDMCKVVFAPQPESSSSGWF
T1 sequence (P05307 21-510 partner): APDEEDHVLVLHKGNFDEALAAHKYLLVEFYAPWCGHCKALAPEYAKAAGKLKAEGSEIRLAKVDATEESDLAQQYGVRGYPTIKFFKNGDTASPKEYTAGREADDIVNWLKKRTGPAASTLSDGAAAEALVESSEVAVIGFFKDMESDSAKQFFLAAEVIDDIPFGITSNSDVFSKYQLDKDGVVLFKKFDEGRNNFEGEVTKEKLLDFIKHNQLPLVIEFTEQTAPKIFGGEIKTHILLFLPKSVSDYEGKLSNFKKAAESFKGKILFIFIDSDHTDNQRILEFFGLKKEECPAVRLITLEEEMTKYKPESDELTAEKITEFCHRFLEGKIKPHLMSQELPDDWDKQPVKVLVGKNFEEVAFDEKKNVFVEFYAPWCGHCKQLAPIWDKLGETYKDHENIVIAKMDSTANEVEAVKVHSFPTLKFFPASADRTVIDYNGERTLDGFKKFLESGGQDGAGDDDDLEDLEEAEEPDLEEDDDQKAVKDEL
Kind of test: Inhibition of interliposomal triglyceride (TG) transfer activity by MTP. The class given is biochemical. The following applies: MTP-mediated TG transfer between donor and acceptor liposomes, 37° C., one hour. The protocol: Microsomal triglyceride transfer protein (MTP) from bovine liver was partially purified in such a way described below. A buffer (50 mM Tris, 250 mM sucrose, 1 mM EDTA, 0.02% NaN3 (pH 7.4)) for making a homogenate preparation was added to bovine liver, and the mixture was homogenated under ice-cooling, then centrifuged at 10,000×g (4° C., 30 minutes) The supernatant was adjusted to pH 5.1 with hydrochloric acid, and stirred for 30 minutes. The solution was further centrifuged at 10,000×g (4° C., 30 minutes), and 1 mM Tris buffer was added to the precipitated residue, and the mixture was adjusted to pH 8.6 with sodium hydroxide. After addition of 2.7 M ammonium sulfate solution, the mixture was stirred for 30 minutes, then centrifuged at 10,000×g (4° C., 40 minutes). The resulting supernatant was served as a crude extraction fraction of MTP and stored at −80° C. under freezing. In its practical use, the crude extraction fraction of MTP was purified by column chromatography on diethylaminoethyl (DEAE) Sepharose using FPLC (Fast Performance Liquid Chromatography) system, and the purified MTP was used for the test.
Small unilamellar-vesicle (SUV) liposome (donor, 0.25 mol % triolein, 5 mol % cardiolipin) labeled with ^14C-triolein and non-labeled SUV liposome (acceptor, 0.25 mol % triolein) were prepared. A fixed amount of donor and acceptor, and MTP were mixed with a sample dissolved in DMSO or with DMSO. The mixture was incubated in a 15 mM Tris hydrochloride buffer (pH 7.4) containing 40 mM sodium chloride, 1 mM EDTA (ethylenediaminetetraacetic acid), 0.02% NaN3 and 0.5% bovine serum albumin at 37° C. for one hour. After completion of the incubation, a suspension of DEAE cellulose (50% v/v) in 15 mM Tris hydrochloride buffer (pH 7.4) was added to the above solution, and the mixture was centrifuged to separate the donor and the acceptor. The radioactivity in the acceptor was measured by liquid scintillation counter. The value obtained by subtracting the radioactivity in the blank from the amount of radioactivity in the acceptor of a DMSO group was determined as MTP-mediated TG transfer activity, and it was compared with the value obtained by subtracting the radioactivity in the blank from the radioactivity in a sample group. The blank was prepared by adding 15 mM Tris-HCl buffer (pH 7.4) in place of MTP. Inhibition rate (%) was calculated from the values obtained according to the following equation.
Inhibition rate (%)=100×(1 minus ((radioactivity of sample group minus radioactivity of blank group)/(radioactivity of DMSO group minus radioactivity of blank group))). 50% Inhibition rate (IC50) was determined on the basis of the above equation.
As a reminder, the IC50 is the concentration that gives 50% inhibition. A high value points to weaker potency. For `CCOC(=O)C(COC(=O)Oc1c(F)cc(NC(=O)c2ccccc2-c2ccc(C(F)(F)F)cc2)c(C(=O)N2CCC(O)CC2)c1F)(C(=O)OCC)c1cccs1` [Example 2-47], the IC50 was 100 to 1000 nM.
The figure for `CCOC(=O)C(COC(=O)Oc1c(F)cc(NC(=O)c2ccccc2-c2ccc(C(F)(F)F)cc2)c(OC)c1F)(C(=O)OCC)c1cccs1` [Example 2-48] is below 10 nM; for `CCOC(=O)C(COC(=O)Oc1c(F)cc(NC(=O)c2ccccc2-c2ccc(C(F)(F)F)cc2)cc1F)(C(=O)OCC)c1cccs1` [Example 2-49] it is below 10 nM.
The figure for `CCOC(=O)C(COC(=O)Oc1c(F)cc(NC(=O)c2ccccc2-c2ccc(C(F)(F)F)cc2)c(OC(=O)N(C)C)c1F)(C(=O)OCC)c1cccs1` [Example 2-50] is 10 to 100 nM; for `CCOC(=O)C(COC(=O)Oc1c(F)cc(NC(=O)c2ccccc2-c2ccc(C(F)(F)F)cc2)c(OCC)c1F)(C(=O)OCC)c1cccs1` [Example 2-51] it is below 10 nM.
The same measure for `CCOC(=O)C(COC(=O)Oc1c(F)cc(NC(=O)c2ccccc2-c2ccc(C(F)(F)F)cc2)c(OC(C)C)c1F)(C(=O)OCC)c1cccs1` [Example 2-52]: below 10 nM; for `CCOC(=O)C(CCC(=O)Oc1ccc(NC(=O)c2ccccc2-c2ccc(C(F)(F)F)cc2)c(C(=O)N(C)C)c1)(C(=O)OCC)c1ccccc1` [Example 3, 2-Ethoxycarbonyl-2-phenylpentanedioic acid 5-{3-dimethylcarbamoyl-4-[(4′-trifluoromethylbiphenyl-2-carbonyl)amino]phenyl}ester 1-ethyl ester]: below 10 nM; for `CCNC(=O)C(COCCC(=O)Oc1ccc(NC(=O)c2ccccc2-c2ccc(C(F)(F)F)cc2)c(C(=O)N(C)C)c1)(C(=O)NCC)c1ccccc1` [Example 3-3, 3-(2,2′-Bisethylcarbamoyl-2-phenylethoxy)propionic acid 3-dimethylcarbamoyl-4-[(4′-trifluoromethylbiphenyl-2-carbonyl)amino]phenyl ester]: below 10 nM.
Take `CCOC(=O)C(CC(=O)Oc1ccc(NC(=O)c2ccccc2-c2ccc(C(F)(F)F)cc2)c(C(=O)N(C)C)c1)(C(=O)OCC)c1ccccc1` [Example 3-4]: the IC50 was below 10 nM.
The same measure for `CCOC(=O)C(CC(=O)OCc1ccc(NC(=O)c2ccccc2-c2ccc(C(F)(F)F)cc2)c(C(=O)N(C)C)c1)(C(=O)OCC)c1ccccc1` [Example 3-5]: below 10 nM.
The figure for `CCOC(=O)C(CCC(=O)Oc1cc(C(=O)N(C)C)c(NC(=O)c2ccccc2-c2ccc(C(F)(F)F)cc2)cc1F)(C(=O)OCC)c1ccccc1` [Example 3-6] is below 10 nM; for `CCOC(=O)C(CCC(=O)OCc1ccc(NC(=O)c2ccccc2-c2ccc(C(F)(F)F)cc2)c(C(=O)N(C)C)c1)(C(=O)OCC)c1ccccc1` [Example 3-7] it is below 10 nM; for `CCOC(=O)C(CCC(=O)Oc1ccc(N(C)C(=O)c2ccccc2-c2ccc(C(F)(F)F)cc2)c(C(=O)N(C)C)c1)(C(=O)OCC)c1ccccc1` [Example 3-8] it is below 10 nM.
The figure for `CCOC(=O)C(CCC(=O)Oc1c(F)cc(NC(=O)c2ccccc2-c2ccc(C(F)(F)F)cc2)c(C(=O)N(C)C)c1F)(C(=O)OCC)c1ccccc1` [Example 3-9] is below 10 nM.
On to `CCOC(=O)C(CCC(=O)Oc1c(F)cc(NC(=O)c2ccccc2-c2ccc(C(F)(F)F)cc2)c(C(=O)NC)c1F)(C(=O)OCC)c1ccccc1` [Example 3-10], for which the IC50 was below 10 nM.
The figure for `CCNC(=O)C(COCC(=O)Oc1ccc(NC(=O)c2ccccc2-c2ccc(C(F)(F)F)cc2)c(C(=O)N(C)C)c1)(C(=O)NCC)c1ccccc1` [Example 3-12] is below 10 nM.
The figure for `CCNC(=O)C(CCCCC(=O)Oc1c(F)cc(NC(=O)c2ccccc2-c2ccc(C(F)(F)F)cc2)c(C(=O)N(C)C)c1F)(C(=O)NCC)c1cccs1` [Example 3-15] is 100 to 1000 nM; for `CCNC(=O)C(COCCC(=O)Oc1c(F)cc(NC(=O)c2ccccc2-c2ccc(C(F)(F)F)cc2)c(C(=O)N(C)C)c1F)(C(=O)NCC)c1ccccc1` [Example 3-16] it is below 10 nM; for `CCNC(=O)C(CCCC(=O)Oc1c(F)cc(NC(=O)c2ccccc2-c2ccc(C(F)(F)F)cc2)c(C(=O)N(C)C)c1F)(C(=O)NCC)c1cccs1` [Example 3-17] it is 10 to 100 nM.
The figure for `CCN(C)C(=O)C(CCC(=O)Oc1c(F)cc(NC(=O)c2ccccc2-c2ccc(C(F)(F)F)cc2)c(C(=O)N(C)C)c1F)(C(=O)N(C)CC)c1ccccc1` [Example 3-18] is 10 to 100 nM; for `CCN(C)C(=O)C(CCCC(=O)Oc1c(F)cc(NC(=O)c2ccccc2-c2ccc(C(F)(F)F)cc2)c(C(=O)N(C)C)c1F)(C(=O)N(C)CC)c1ccccc1` [Example 3-19] it is 100 to 1000 nM.
Regarding `CCOC(=O)C(CCC(=O)Oc1c(F)cc(NC(=O)c2ccccc2-c2ccc(C(F)(F)F)cc2)c(C(=O)N(C)C)c1F)(C(=O)OCC)c1cccs1` [Example 3-20], the IC50 was below 10 nM.
Turning to `CCOC(=O)C(CCC(=O)Oc1c(F)cc(NC(=O)c2ccc(C)cc2-c2ccc(C(F)(F)F)cc2)c(C(=O)N(C)C)c1F)(C(=O)OCC)c1cccs1` [Example 3-21], the IC50 was below 10 nM.
The same measure for `CCOC(=O)C(CCC(=O)Oc1c(F)cc(NC(=O)c2ccc(C)cc2-c2ccc(C(F)(F)F)cc2)c(C(=O)N(C)C)c1F)(C(=O)OCC)c1ccccc1` [Example 3-22]: below 10 nM.
Compound `CCOC(=O)C(CC(=O)OCc1ccc(NC(=O)c2ccccc2-c2ccc(C(F)(F)F)cc2)c(C(=O)N(C)C)c1)(C(=O)OCC)c1ccccn1` [Example 3-23] returned an IC50 below 10 nM.
The same measure for `CCNC(=O)C(COCC(=O)OCc1ccc(NC(=O)c2ccccc2-c2ccc(C(F)(F)F)cc2)c(C(=O)N(C)C)c1)(C(=O)NCC)c1ccccc1` [Example 3-24]: below 10 nM.
